Test results from ChEMBL document CHEMBL3085684, “Unraveling phosphodiesterase surfaces. Identification of phosphodiesterase 7 allosteric modulation cavities” (Eur J Med Chem, 2013).
Activity calls are given as the source filed them. The calls are words filed in the database; no cut-off is given here.

target: T1, High affinity 3',5'-cyclic-AMP phosphodiesterase 7A (Homo sapiens, UniProt Q13946); test: Non-competitive mixed type inhibition of human recombinant PDE7A1 using […] after 20 mins by Lineweaver-Burk plot analysis
T1 sequence (Q13946 whole entry): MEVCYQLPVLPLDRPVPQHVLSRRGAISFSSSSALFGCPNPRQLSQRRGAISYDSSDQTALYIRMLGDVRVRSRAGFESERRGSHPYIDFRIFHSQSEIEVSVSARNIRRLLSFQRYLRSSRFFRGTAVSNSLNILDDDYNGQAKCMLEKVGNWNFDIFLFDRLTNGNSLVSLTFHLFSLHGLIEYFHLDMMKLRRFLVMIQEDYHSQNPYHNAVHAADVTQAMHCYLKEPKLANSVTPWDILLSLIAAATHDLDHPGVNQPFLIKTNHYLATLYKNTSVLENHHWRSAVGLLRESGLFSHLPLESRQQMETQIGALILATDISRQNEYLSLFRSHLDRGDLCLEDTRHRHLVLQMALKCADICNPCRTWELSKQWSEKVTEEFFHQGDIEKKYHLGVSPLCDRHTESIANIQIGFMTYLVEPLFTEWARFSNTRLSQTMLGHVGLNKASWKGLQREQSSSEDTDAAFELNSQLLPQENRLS

S=c1[nH]c2ccccc2c(=S)n1-c1ccccc1 was tested. Which inhibition did it give?
The inhibition was “Active”.

How did the inhibition turn out when O=c1c2ccccc2[nH]c(=S)n1-c1ccccc1 was run?
The inhibition was “Active”.

target: T1, High affinity 3',5'-cyclic-AMP phosphodiesterase 7A; test: Competitive inhibition of human recombinant PDE7A1 using […] after 20 mins by Lineweaver-Burk plot analysis

For CC(C)Cn1c(=O)n(C)c(=O)c2nc[nH]c21, which “competitive inhibition (Lineweaver-Burk)” value is on record?
Its value is “Active”.

How did the “competitive inhibition (Lineweaver-Burk)” value turn out when O=c1c2ccccc2nc(SCc2ccccc2)n1-c1ccccc1 was run?
Its value is “Active”.

With CSc1nc2ccccc2c(=O)n1-c1c(F)cccc1F as the molecule, how does the “competitive inhibition (Lineweaver-Burk)” value read?
Its value is “Active”.

Which “competitive inhibition (Lineweaver-Burk)” value does the source give for CCSc1nc2ccccc2c(=O)n1-c1ccccc1 here?
Its value is “Active”.

target: T1, High affinity 3',5'-cyclic-AMP phosphodiesterase 7A; test: Inhibition of human recombinant PDE7A1 using […] after 20 mins by scintillation proximity assay

How did the IC50 turn out when Cc1cccc2c(=O)n(-c3c(F)cccc3F)c(=S)[nH]c12 was run?
The IC50 was 9.3 µM.

With CSc1nc2ccccc2c(=S)n1-c1ccccc1Br as the molecule, how does the IC50 read?
The IC50 was 5.33 µM.

How did the IC50 turn out when CSc1nc2c(C)cccc2c(=O)n1-c1ccccc1Br was run?
Its IC50 is 1.69 µM.

How did the IC50 turn out when O=c1c2ccccc2[nH]c(=S)n1-c1ccc(F)c(F)c1F was run?
The IC50 was 7.02 µM.

For CSc1nc2c(Cl)cccc2c(=O)n1-c1c(F)cccc1F, which IC50 is on record?
The IC50 was 15.2 µM.

With Fc1cccc(F)c1-n1c(=S)[nH]c2ccccc2c1=S as the molecule, how does the IC50 read?
The IC50 was 0.48 µM.

For CSc1nc2ccc(Br)cc2c(=O)n1-c1ccc(F)c(F)c1F, which IC50 is on record?
The IC50 was 5.07 µM.

For CSc1nc2ccccc2c(=S)n1-c1c(F)cccc1F, which IC50 is on record?
The IC50 was 3.23 µM.
